Each block holds one compound with its values, some of them ahead of it.
What was measured:
[1] = target: calcineurin binding to NFAT1 (Homo sapiens, UniProt Q08209); assay: 125I-calcineurin binding to GST-NFAT1(1-400) immobilized on glutathione-Sepharose beads; settings: at concentrations up to 100 μM
[2] = target: T1, dephosphorylation of NFAT1 by calcineurin (Homo sapiens, UniProt Q08209); assay: in vitro dephosphorylation of NFAT1(1-460)-GFP by calcineurin in HeLa cytosolic extracts, Western blotting; format: biochemical
Method: Samples were resolved by SDS-PAGE and dephosphorylation was assessed with anti-HA antibody 12CA5. […] Slightly higher concentrations of the peptides were required to inhibit the in vitro dephosphorylation than were required to inhibit NFAT-calcineurin binding, presumably due to some degradation of the peptides by enzymes present in the cell extracts.

[3] = target: T1, dephosphorylation of NFAT1 by calcineurin; assay: dephosphorylation of HA-NFAT1(1-460)-GFP in HEK-293 cytosolic extracts by calcineurin/calmodulin; format: biochemical; settings: wild type 13-mer 100 μM or 400 μM; mutant 400 μM; calcineurin/calmodulin 100 nM to 900 nM
Method: (§1) The HA-tagged N-terminal domains of NFAT1 and NFAT4 were expressed as the fusion proteins HA-NFAT1(1-460)-GFP and HA-NFAT4(1-407)-GFP in HEK-293 cells. […] Dephosphorylation was allowed to proceed for 30 min at 30° C., and samples were analyzed by SDS-PAGE and Western blotting with anti-HA antibody.

[4] = target: dephosphorylation of NFAT4 by calcineurin (Homo sapiens, UniProt Q08209); assay: dephosphorylation of HA-NFAT4(1-407)-GFP in HEK-293 cytosolic extracts by calcineurin/calmodulin; format: biochemical; settings: wild type 13-mer 100 μM or 400 μM; mutant 400 μM; calcineurin/calmodulin 100 nM to 900 nM
Method: as §1

[5] = target: calcineurin binding to GST-NFAT1 (Homo sapiens, UniProt Q08209); assay: binding of activated calcineurin to GST-NFAT1(1-415), glutathione-Sepharose collection and Western blotting
[6] = target: T2, recombinant human calcineurin catalytic domain, calcineurin(2-347) (Homo sapiens, UniProt Q08209, L343A/M347D/Y341S); assay: fluorescence polarization competition assay, displacement of OG-VIVIT from calcineurin; format: binding; settings: for displacement of OG-VIVIT from calcineurin: at high concentrations, 1 μM calcineurin, 60 nM OG-VIVIT; for IC50: calcineurin-VIVIT peptide interaction, read-out: Estimated IC50
T2 construct: GST (N, cleaved yes); made in house; host or cells: E. coli strain DH5α
Method: Samples were analyzed as described in the preceding paragraph, and the resulting polarization data were plotted against the concentration of unlabelled VIVIT peptide, as shown in FIG. 8B.
The library stocks were dissolved at a nominal concentration of 10 mM in DMSO, and formatted for convenient robotic transfer on 384-well plates at the Institute of Chemistry and Cell Biology, Harvard Medical School. To initiate the competition assay, 40 nl volumes were pin-transferred from each well of a library stock plate to the corresponding wells of an assay plate, utilizing a robotic device. After a minimum 10 min incubation at room temperature to allow the binding to reach equilibrium, fluorescence polarization data were collected employing an Analyst plate reader (Molecular Devices).
Stocks of candidate inhibitor compounds and their structural analogues were purchased from ChemBridge or Asinex. The structure and purity of individual compounds were verified by ^1H NMR, mass spectrometry, or thin-layer chromatography. […] INCA1, INCA2, and INCA6 can be represented generally as follows: […]

calcineurin [7] = target: calcineurin (Homo sapiens, UniProt Q08209, L343A/M347D/Y341S); assay: 1H NMR titration spectroscopy binding experiments; settings: 10 μM compound, 20 μM calcineurin, 25° C., buffered D2O
Method: T2-filtered ^1H NMR spectra were obtained on a Bruker Avance 600 instrument with CryoPhobe using low-power presaturation of residual water. Preacquisition delays included up to five spin echos to suppress fast-relaxing broad protein resonances and were times to yield in-phase signals for J-coupled spins. Chemical shifts were referenced to internal standard 5 μM 2,2-dimethylsilapentane-5-sulfonic acid (DSS).

[8] = target: T3, dephosphorylation of NFAT by calcineurin (Homo sapiens, UniProt Q08209); assay: in vitro dephosphorylation of NFAT1 in C1.7W2 T cell lysates by recombinant calcineurin; format: biochemical; settings: 500 nM calcineurin, 600 nM calmodulin, 30 minutes at 30° C.; INCA2 at micromolar concentrations
calcineurin [9] = target: T4, calcineurin (Homo sapiens, UniProt Q08209); assay: dephosphorylation of GST-Tau protein by calcineurin; format: biochemical
calcineurin [10] = target: T4, calcineurin; assay: in vitro dephosphorylation of recombinant 32P-labelled RIIα protein by calcineurin; format: biochemical
[11] = target: T3, dephosphorylation of NFAT by calcineurin; assay: calcineurin-mediated dephosphorylation of HA-NFAT1(1-460)-GFP in HeLa cell lysates; format: biochemical; settings: 200 nM calcineurin, 600 nM calmodulin, 30 min at 30 C.; peptide amounts as in FIG. 5B
calcineurin [12] = target: T4, calcineurin; assay: dephosphorylation of 32P-RII phosphopeptide by calcineurin; format: biochemical; settings: 32P-RII phosphopeptide 100 μM, calcineurin 100 nM; peptides 30 μM to 400 μM; FK506/FKBP12 10 μM/10 μM
Method: The dephosphorylation reaction was allowed to proceed for 30 min at 30° C. after which the reaction was stopped by addition of excess 0.1% trichloroacetic acid, substrate peptide was removed by adsorption onto a cation exchange resin (AG50W; BioRad Laboratories, Hercules, Calif.), and released ^32P label in the supernatant was measured in a liquid scintillation counter.

calcineurin [13] = target: T4, calcineurin; assay: calcineurin phosphatase assay with phosphorylated RII peptide, Malachite green detection; format: biochemical; settings: 100 μM INCA compound or 100 μM VIVIT peptide; 6.8 nM calcineurin, 15 min at 25° C.
[14] = tested on: NFAT-dependent reporter gene (3×NFAT-Luc) in Jurkat cells; assay: 3×NFAT-Luc luciferase reporter in transfected Jurkat cells; format: cell-based, human; settings: GFP fusion expressed in Jurkat cells; PMA and ionomycin 6 hours
[15] = peptide concentrations in the range from 16 μM to 400 μM, calcineurin 200 nM, calmodulin 600 nM, 30 min at 30° C.

inhibition of the NFAT1-calcineurin interaction [1]: did not inhibit
inhibition of dephosphorylation of NFAT1 by calcineurin in vitro ([2]; only at concentrations above 400 μM): only marginally inhibitory
inhibition of dephosphorylation of HA-NFAT1(1-460)-GFP [3]: little or no inhibition
inhibition of dephosphorylation of HA-NFAT4(1-407)-GFP [4]: little or no inhibition
inhibition of calcineurin binding to GST-NFAT1 ([5]; peptide 100 μM): did not inhibit
Compound: CM2 mutant 26-mer peptide: 26-mer control peptide with R112 to A, E114 to A, T116 to A substitutions and appended tyrosine (KPAGASGPSPAIAIAPSHELMQAGGY) [reference compound]

Ki [6]: 500 to 2000 nM
displacement of OG-VIVIT from calcineurin [6]: complete
IC50 [6]: 1000 nM
binding to calcineurin in the absence of VIVIT peptide (calcineurin [7]): direct molecular interaction
Compound: CC(=O)C(C(C)=O)C1=C(Cl)C(=O)C(=O)c2c(C(=O)c3ccccc3)coc21 [INCA1]

Compound: O=P([O-])([O-])OP(=O)([O-])[O-].[Na+].[Na+].[Na+].[Na+] [sodium pyrophosphate, reference compound]
dephosphorylation of NFAT by calcineurin in vitro [8]: no dephosphorylation
inhibition of dephosphorylation of GST-Tau protein by control inhibitors (calcineurin [9]; sodium pyrophosphate 10 mM, CsA/cyclophilin […] μM/5 μM): efficiently inhibited
inhibition of dephosphorylation of RIIα protein by control inhibitors (calcineurin [10]; sodium pyrophosphate 20 mM, CsA/cyclophilin […] μM/5 μM, FK506/FKBP12 4 μM/4 μM): efficiently inhibited

inhibition of dephosphorylation of NFAT1 by calcineurin in vitro [2, 15]: inhibited
inhibition of dephosphorylation of HA-NFAT1(1-460)-GFP [3]: inhibited dephosphorylation
inhibition of NFAT dephosphorylation [11]: effective
inhibition of dephosphorylation of HA-NFAT4(1-407)-GFP [4]: inhibited dephosphorylation
inhibition of the binding of activated calcineurin to GST-NFAT1 ([5]; 200 nM calcineurin, 600 nM calmodulin, 2 mM CaCl2, peptide amounts as in FIG. 5A): inhibited
Compound: CC[C@H](C)[C@H](NC(=O)[C@H](CCCNC(=N)N)NC(=O)[C@@H]1CCCN1C(=O)[C@H](CO)NC(=O)[C@@H]1CCCN1C(=O)CNC(=O)[C@@H](N)CO)C(=O)N[C@@H](CCC(=O)O)C(=O)N[C@H](C(=O)N[C@H](C(=O)N1CCC[C@H]1C(=O)N[C@@H](CO)C(=O)N[C@@H](Cc1c[nH]cn1)C(=O)O)[C@@H](C)O)[C@@H](C)CC [wild type 13-mer peptide]
inhibition of dephosphorylation of the RII peptide by calcineurin (calcineurin [12]): Neither of the SPRIEITPS peptides inhibited

dephosphorylation of NFAT by calcineurin in vitro [8]: blocked
Ki [6]: 100 to 500 nM
displacement of OG-VIVIT from calcineurin [6]: complete
IC50 [6]: 3000 nM
binding to calcineurin in the absence of VIVIT peptide (calcineurin [7]): direct molecular interaction
release of free phosphate from RII phosphopeptide (calcineurin [13]): not affected
Compound: O=C1C(Cl)=C(Cl)C(=NS(=O)(=O)c2ccccc2)c2ccccc21 [INCA2]

Compound: GFP-SPRIEIT: GFP-SPRIEIT fusion protein, expression vector previously described (Aramburu et al 1998)
block of induced luciferase expression, endogenous NFAT [14]: partially blocked

inhibition of dephosphorylation of GST-Tau protein by calcineurin (calcineurin [9]; peptide 20 μM and 100 μM, calcineurin 200 nM, 90 min at 30° C.): not inhibited
inhibition at 500 µM (calcineurin [9]; read-out: inhibition of dephosphorylation of GST-Tau protein by calcineurin, peptide 500 μM): 10%
inhibition of dephosphorylation of NFAT1 ([2]; 500 μM peptide): fully inhibited
inhibition of dephosphorylation of NFAT1 by calcineurin in vitro [2, 15]: inhibited
inhibition of dephosphorylation of RIIα protein (calcineurin [10]; peptide 20 μM and 100 μM, calcineurin 200 nM, 45 min at 30° C.): did not inhibit
inhibition at 500 µM (calcineurin [10]; peptide 500 μM): 18%
Compound: CC[C@H](C)[C@H](NC(=O)[C@H](CCCNC(=N)N)NC(=O)[C@@H]1CCCN1C(=O)[C@H](CO)NC(=O)[C@@H]1CCCN1C(=O)CNC(=O)[C@H](CO)NC(=O)[C@H](C)NC(=O)CNC(=O)[C@H](C)NC(=O)[C@@H]1CCCN1C(=O)[C@@H](N)CCCCN)C(=O)N[C@@H](CCC(=O)O)C(=O)N[C@H](C(=O)N[C@H](C(=O)N1CCC[C@H]1C(=O)N[C@@H](CO)C(=O)N[C@@H](Cc1c[nH]cn1)C(=O)N[C@@H](CCC(=O)O)C(=O)N[C@@H](CC(C)C)C(=O)N[C@@H](CCSC)C(=O)N[C@@H](CCC(N)=O)C(=O)N[C@@H](C)C(=O)NCC(=O)NCC(=O)N[C@@H](Cc1ccc(O)cc1)C(=O)O)[C@@H](C)O)[C@@H](C)CC [wild type 26-mer peptide]
inhibition of dephosphorylation of the RII peptide by calcineurin (calcineurin [12]): Neither of the SPRIEITPS peptides inhibited
